Here are results for seven compounds from US20250353863A1, “TRICYCLIC SPIROLACTAM COMPOUNDS WITH ANTIMYCOBACTERIAL ACTIVITY” (priority 2022, published 2025).

In brackets after ≈: the same amount, converted by molar mass. Like-named read-outs stand apart in the source and are kept apart here.

A word on the IC50: it is the concentration that gives 50% inhibition.

For assay [1], the target named is NdhA-M. tb (recombinant MBP-NdhA) (Mycobacterium tuberculosis (strain ATCC 25618 / H37Rv), UniProt P95200). Kind of assay: Biochemical evaluation of MBP-NdhA inhibition (NADH oxidation with menadione).
Another assay has as its system M. avium. In words: MIC analysis of non-Mtb mycobacteria. It counts as cell-based. The note with it: Mycobacterium avium, 120 h; 5 days incubation.
The test system of another assay is BCG. In words: microbe, parasite or virus in culture. It counts as cell-based. The note with it: Mycobacterium tuberculosis variant bovis BCG, read-out: MIC BCG.
In another assay the test system is Mtb H37Rv-WT. In words: MIC by resazurin microtiter assay (REMA) against Mtb. In kind it is cell-based. The note with it: Mycobacterium tuberculosis, REMA. (Alamar Blue is a resazurin reagent that responds to reducing activity.)
Another assay concerns M. abscessus S. Kind of assay: MIC analysis of non-Mtb mycobacteria. It counts as cell-based, Mycobacterium abscessus. The note with it: Mycobacteroides abscessus, 48 h; 2 days incubation.
In a further assay the test system is M. abscessus R. In words: MIC analysis of non-Mtb mycobacteria. The note with it: Mycobacteroides abscessus, 48 h; 2 days incubation. It counts as cell-based, Mycobacterium abscessus.
A further assay deals with M. smegmatis. Kind of assay: MIC analysis of non-Mtb mycobacteria. The note with it: Mycolicibacterium smegmatis, 48 h; 2 days incubation. In kind it is cell-based.
A further assay relates to M. marinum. Kind of assay: MIC analysis of non-Mtb mycobacteria. In kind it is cell-based. The note with it: Mycobacterium marinum, 120 h; 5 days, 30° C., visual inspection.
In assay [2] the target is purified Ndh (Mtb recombinant MBP tagged Ndh-2 enzyme, MBP-Ndh) (Mycobacterium tuberculosis (strain ATCC 25618 / H37Rv), UniProt P95160). In words: Biochemical evaluation of MBP-Ndh inhibition (NADH oxidation with menadione).
Sequence of purified Ndh (Mtb recombinant MBP tagged Ndh-2 enzyme, MBP-Ndh) (P95160 whole entry, looked up): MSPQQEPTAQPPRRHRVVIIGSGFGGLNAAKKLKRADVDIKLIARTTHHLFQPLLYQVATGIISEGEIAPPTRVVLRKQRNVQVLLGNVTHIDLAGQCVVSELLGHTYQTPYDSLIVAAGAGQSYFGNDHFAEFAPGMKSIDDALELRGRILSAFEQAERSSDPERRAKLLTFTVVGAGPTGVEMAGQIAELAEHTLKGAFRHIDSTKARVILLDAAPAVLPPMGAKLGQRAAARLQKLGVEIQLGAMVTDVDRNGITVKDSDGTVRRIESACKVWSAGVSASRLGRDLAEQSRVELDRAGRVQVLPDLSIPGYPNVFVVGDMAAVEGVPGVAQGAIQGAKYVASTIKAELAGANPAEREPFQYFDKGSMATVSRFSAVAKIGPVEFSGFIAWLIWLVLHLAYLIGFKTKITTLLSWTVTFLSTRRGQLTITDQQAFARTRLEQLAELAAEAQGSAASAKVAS

Sequence of NdhA-M. tb (recombinant MBP-NdhA) (P95200 whole entry, looked up): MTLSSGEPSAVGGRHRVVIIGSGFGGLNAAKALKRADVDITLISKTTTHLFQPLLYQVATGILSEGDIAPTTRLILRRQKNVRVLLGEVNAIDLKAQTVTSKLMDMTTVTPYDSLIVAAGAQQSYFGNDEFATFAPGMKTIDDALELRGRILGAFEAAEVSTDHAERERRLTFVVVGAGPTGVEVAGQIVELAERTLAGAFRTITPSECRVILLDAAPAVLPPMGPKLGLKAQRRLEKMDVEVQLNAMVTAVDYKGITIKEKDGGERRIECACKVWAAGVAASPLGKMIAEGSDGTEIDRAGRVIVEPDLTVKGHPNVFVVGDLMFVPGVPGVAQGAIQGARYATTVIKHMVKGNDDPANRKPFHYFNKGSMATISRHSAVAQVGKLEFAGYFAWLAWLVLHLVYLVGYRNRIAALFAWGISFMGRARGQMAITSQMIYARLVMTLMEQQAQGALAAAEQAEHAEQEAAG

In the case of `CC(C)[C@H]1CO[C@]23CCN(Cc4ccc(C(F)(F)F)cc4)C[C@H]2CCC(=O)N13` [Example 2, (3S,7aR,11aR)-3-isopropyl-9-[[4-(trifluoromethyl)phenyl]methyl]-2,3,6,7,7a,8,10,11-octahydrooxazolo[2,3-j][1,6]naphthyridin-5-one], the IC50 in assay [1] is less than 100 nM. The MIC in the assay with M. avium was less than 1 µM; with BCG, 1 to 10 µM (≈ 0.396 to 3.96 µg/mL); in the assay on Mtb H37Rv-WT (read-out: MIC M. tuberculosis), less than 1 µM; in the assay on M. abscessus S, 1 to 10 µM (≈ 0.396 to 3.96 µg/mL); against M. abscessus R, 1 to 10 µM (≈ 0.396 to 3.96 µg/mL); in the assay with M. smegmatis, 1 to 10 µM (≈ 0.396 to 3.96 µg/mL). Besides, the MIC with M. marinum is less than 1 µM.

As to `CC(C)[C@H]1CO[C@]23CCN(Cc4ccc(OC(F)(F)F)cc4)C[C@H]2CCC(=O)N13` [Example 3, (3S,7aR,11aR)-3-isopropyl-9-[[4-(trifluoromethoxy)phenyl]methyl]-2,3,6,7,7a,8,10,11-octahyooxazolo[2,3-j][1,6]naphthyridin-5-one], the IC50 in assay [1] was less than 100 nM. The MIC in the assay with M. avium is less than 1 µM; with BCG, 1 to 10 µM (≈ 0.412 to 4.12 µg/mL); in the assay with Mtb H37Rv-WT (read-out: MIC M. tuberculosis), less than 1 µM; in the assay with M. abscessus S, 1 to 10 µM (≈ 0.412 to 4.12 µg/mL); against M. abscessus R it was 1 to 10 µM (≈ 0.412 to 4.12 µg/mL); against M. smegmatis, 1 to 10 µM (≈ 0.412 to 4.12 µg/mL). In the assay with M. marinum, this compound registered an MIC of less than 1 µM.

In the case of `CC(C)[C@H]1CO[C@]23CCN(Cc4ccc(Cl)cc4)C[C@H]2CCC(=O)N13` [Example 4, (3S,7aR,11aR)-9-[(4-chlorophenyl)methyl]-3-isopropyl-2,3,6,7,7a,8,10,11-octahydrooxazolo[2,3-j][1,6]naphthyridin-5-one], the IC50 in assay [1] was less than 100 nM; in [2] (read-out: IC50 Ndh-M. tb) it was less than 0.1 µM. Moreover, the MIC with Mtb H37Rv-WT (read-out: MIC M. tuberculosis) is less than 1 µM.

On to `CC(C)[C@H]1CO[C@]23CCN(Cc4ccc(Cl)c(Cl)c4)C[C@H]2CCC(=O)N13` [Example 5, (3S,7aR,11aR)-9-[(3,4-dichlorophenyl)methyl]-3-isopropyl-2,3,6,7,7a,8,10,11-octahydrooxazolo[2,3-j][1,6]naphthyridin-5-one], for which the MIC with Mtb H37Rv-WT (read-out: MIC M. tuberculosis) was less than 1 µM. The IC50 in assay [2] (read-out: IC50 Ndh-M. tb) was less than 0.1 µM.

Consider `CC(C)[C@H]1CO[C@]23CCN(Cc4ccc(Cl)c(C(F)(F)F)c4)C[C@H]2CCC(=O)N13` [Example 9, (3S,7aR,11aR)-9-[[4-chloro-3-(trifluoromethyl)phenyl]methyl]-3-isopropyl-2,3,6,7,7a,8,10,11-octahydrooxazolo[2,3-j][1,6]naphthyridin-5-one], for which the MIC in the assay on M. avium is less than 1 µM; with BCG, 1 to 10 µM (≈ 0.431 to 4.31 µg/mL); in the assay with Mtb H37Rv-WT (read-out: MIC M. tuberculosis), less than 1 µM; with M. abscessus S it was 1 to 10 µM (≈ 0.431 to 4.31 µg/mL); against M. abscessus R it was 1 to 10 µM (≈ 0.431 to 4.31 µg/mL); in the assay with M. smegmatis, 1 to 10 µM (≈ 0.431 to 4.31 µg/mL). This compound came in with an MIC in the assay on M. marinum of less than 1 µM. Moreover, the IC50 in assay [2] (read-out: IC50 Ndh-M. tb) was less than 0.1 µM.

For `CC(C)[C@H]1CO[C@]23CCN(Cc4cc5ccccc5n4C)C[C@H]2CCC(=O)N13` [Example 28, (3S,7aR,11aR)-3-isopropyl-9-[(1-methylindol-2-yl)methyl]-2,3,6,7,7a,8,10,11-ocathydrooxazolo[2,3-j][1,6]naphthyridin-5-one], the MIC in the assay on Mtb H37Rv-WT (read-out: MIC M. tuberculosis) and in the assay on M. smegmatis was less than 1 µM in each case. In addition, the IC50 in [2] (read-out: IC50 Ndh-M. tb) is less than 0.1 µM.

Regarding `CC(C)[C@H]1CO[C@]23CCN(C(=O)OCc4ccccc4)C[C@H]2CCC(=O)N13` [benzyl (3S,7aR,11aR)-3-isopropyl-5-oxo-2,3,6,7,7a,8,10,11-octahydrooxazolo[2,3-j][1,6]naphthyridine-9-carboxylate], in the assay with Mtb H37Rv-WT (144 h, 37° C., 6 days, read-out: MIC (μM) H37Rv-WT), the MIC lay within 1 to 10 µM (≈ 0.372 to 3.72 µg/mL). In addition, the IC50 in assay [2] (NADH 500 μM, menadione 100 μM, read-out: IC50 (μM) purified Ndh) lay in the range of 0.1 to 1 µM.
